≈ marks a conversion by molar mass, not a printed value. Where two headings read alike, the source gives them in different places.
Legend:
C. albicans = experiment: Broth dilution antifungal susceptibility testing, C. albicans; format: cell-based, Candida albicans; settings: Candida albicans, 50% reduction in turbidity, read-out: minimum inhibitory concentration (MIC)
Procedure: (§1) A total of 23 isolates were tested to include 3 Candida albicans, 3 Candida glabrata, 3 Cryptococcus neoformans, 3 Aspergillus fumigatus, 3 Rhizopus oryzae, 3, Fusarium solani, 3 Pseudallescheria boydii, and 2 […]. All isolates were clinical isolates submitted to the Fungus Testing Laboratory for evaluation. Antifungal susceptibility testing was accomplished according to the methods outlined in the National Committee for Clinical Laboratory Standards, M-27A2, Reference Method for Broth Dilution Antifungal Susceptibility Testing of Yeasts; Approved Standard, and M38-A “Reference Method for Broth Dilution Antifungal Susceptibility Testing of Conidium-Forming Filamentous Fungi; Approved Standard”. This includes testing in RPMI-1640 with glutamine and without bicarbonate, an inoculum size of 0.5-2.5×10^3 for yeasts or […] for moulds, and incubation at 35° C. for 24 and 48 hours. […] Drug concentrations were 0.125-64 μg/ml. A 10 mg portion of each powder was weighed out and added to 1 ml of 100% DMSO for compound 205. The resulting concentration of […] was diluted to a working concentration of 6400 μg/ml for compound 205 in 100% DMSO. All subsequent dilutions were also made using the respective diluents. Final testing concentrations ranged from 0.125-64 μg/ml. The NCCLS recommended medium RPMI-1640 (Hardy Diagnostics, Santa Monica, Calif.) was utilized as the test medium. All isolates in this study were clinical isolates received in the Fungus Testing Laboratory for standard antifungal susceptibility testing and/or identification. Isolates, which were not sent for identification, were confirmed to assure testing integrity. A total of 23 were tested to include 3 Candida albicans, 3 Candida glabrata, 3 Cryptococcus neoformans, 3 Aspergillus fumigatus, 3 Rhizopus oryzae, 3, Fusarium solani, 3 Pseudallescheria boydii, and 2 […]. Minimum inhibitory concentrations (MIC) were determined at the first 24-hour interval where growth could be determined in the drug-free control tube.

C. glabrata = experiment: Broth dilution antifungal susceptibility testing, C. glabrata; format: cell-based, Candida glabrata; settings: Nakaseomyces glabratus, 50% reduction in turbidity, read-out: minimum inhibitory concentration (MIC)
Procedure: as §1

C. neoformans = experiment: Broth dilution antifungal susceptibility testing, C. neoformans; format: cell-based; settings: Cryptococcus neoformans, 50% reduction in turbidity, read-out: minimum inhibitory concentration (MIC)
Procedure: as §1

R. arrhizus = experiment: Broth dilution antifungal susceptibility testing, R. arrhizus; format: cell-based, Rhizopus oryzae; settings: Rhizopus arrhizus, 80% inhibition, read-out: minimum inhibitory concentration (MIC)
Procedure: as §1

F. solani = experiment: Broth dilution antifungal susceptibility testing, F. solani; format: cell-based; settings: Fusarium solani, 80% inhibition, read-out: minimum inhibitory concentration (MIC)
Procedure: as §1

S. apiospermum = experiment: Broth dilution antifungal susceptibility testing, S. apiospermum; format: cell-based, Pseudallescheria boydii; settings: Scedosporium apiospermum, 80% inhibition, read-out: minimum inhibitory concentration (MIC)
Procedure: as §1

A. fumigatus = experiment: Broth dilution antifungal susceptibility testing, A. fumigatus; format: cell-based, Aspergillus fumigatus; settings: Aspergillus fumigatus, 80% inhibition, read-out: minimum inhibitory concentration (MIC)
Procedure: as §1

T. rubrum = experiment: Broth dilution antifungal susceptibility testing, T. rubrum; format: cell-based, Trichophyton rubrum; settings: Trichophyton rubrum, 80% inhibition, read-out: minimum inhibitory concentration (MIC)
Procedure: as §1

[1] = 24 h, isolate 07-3006, 24 hours
[2] = 24 h, isolate 07-3011, 24 hours
[3] = 24 h, isolate 07-3012, 24 hours
[4] = 48 h, isolate 07-3006, 48 hours
[5] = 48 h, isolate 07-3011, 48 hours
[6] = 48 h, isolate 07-3012, 48 hours
[7] = 24 h, isolate 07-2964, 24 hours
[8] = 24 h, isolate 07-2965, 24 hours
[9] = 24 h, isolate 07-3013, 24 hours
[10] = 48 h, isolate 07-2964, 48 hours
[11] = 48 h, isolate 07-2965, 48 hours
[12] = 48 h, isolate 07-3013, 48 hours
[13] = 24 h, isolate 07-2665, 24 hours
[14] = 24 h, isolate 07-2737, 24 hours
[15] = 24 h, isolate 07-2829, 24 hours
[16] = 48 h, isolate 07-2665, 48 hours
[17] = 48 h, isolate 07-2737, 48 hours
[18] = 48 h, isolate 07-2829, 48 hours
[19] = 24 h, isolate 07-1870, 24 hours
[20] = 24 h, isolate 07-2044, 24 hours
[21] = 24 h, isolate 07-2078, 24 hours
[22] = 48 h, isolate 07-1870, 48 hours
[23] = 48 h, isolate 07-2044, 48 hours
[24] = 48 h, isolate 07-2078, 48 hours
[25] = 24 h, isolate 07-1399, 24 hours
[26] = 24 h, isolate 07-1755, 24 hours
[27] = 24 h, isolate 07-1867, 24 hours
[28] = 48 h, isolate 07-1399, 48 hours
[29] = 48 h, isolate 07-1755, 48 hours
[30] = 48 h, isolate 07-1867, 48 hours
[31] = 24 h, isolate 07-1333, 24 hours
[32] = 24 h, isolate 07-1502, 24 hours
[33] = 24 h, isolate 07-1601, 24 hours
[34] = 48 h, isolate 07-1333, 48 hours
[35] = 48 h, isolate 07-1502, 48 hours
[36] = 48 h, isolate 07-1601, 48 hours
[37] = 24 h, isolate 06-4126, 24 hours
[38] = 24 h, isolate 07-2039, 24 hours
[39] = 48 h, isolate 06-4126, 48 hours
[40] = 48 h, isolate 07-2039, 48 hours
[41] = 24 h, isolate 07-1743, 24 hours
[42] = 24 h, isolate 07-2055, 24 hours
[43] = 48 h, isolate 07-1743, 48 hours
[44] = 48 h, isolate 07-2055, 48 hours

`Nc1ccc(NC(=O)CCCCCNC(=O)c2ccccc2S)cc1` [Compound 209, 2-Mercapto-N-[5-(4-Aminophenylcarbamoyl)-pentyl]benzamide] showed an MIC (C. albicans; [1]) of 2 µg/mL (≈ 5.59 µM), an MIC (C. albicans; [2]) of 2 µg/mL (≈ 5.59 µM) and an MIC (C. albicans; [3]) of 2 µg/mL (≈ 5.59 µM). For the same compound, the MIC (C. albicans; [4]) was 32 µg/mL (≈ 89.5 µM), the MIC (C. albicans; [5]) was 32 µg/mL (≈ 89.5 µM) and the MIC (C. albicans; [6]) was 32 µg/mL (≈ 89.5 µM). The MIC (C. glabrata; [7]) was 2 µg/mL (≈ 5.59 µM), the MIC (C. glabrata; [8]) was 2 µg/mL (≈ 5.59 µM) and the MIC (C. glabrata; [9]) was 2 µg/mL (≈ 5.59 µM). It also gave an MIC (C. glabrata; [10]) of 32 µg/mL (≈ 89.5 µM), an MIC (C. glabrata; [11]) of 32 µg/mL (≈ 89.5 µM) and an MIC (C. glabrata; [12]) of 32 µg/mL (≈ 89.5 µM). The MIC (C. neoformans; [13]) was 32 µg/mL (≈ 89.5 µM), the MIC (C. neoformans; [14]) was 8 µg/mL (≈ 22.4 µM) and the MIC (C. neoformans; [15]) was 16 µg/mL (≈ 44.8 µM). The MIC (C. neoformans; [16]) was 32 µg/mL (≈ 89.5 µM), the MIC (C. neoformans; [17]) was 16 µg/mL (≈ 44.8 µM) and the MIC (C. neoformans; [18]) was 16 µg/mL (≈ 44.8 µM). It also gave an MIC (R. arrhizus; [19]) of 2 µg/mL (≈ 5.59 µM), an MIC (R. arrhizus; [20]) of 2 µg/mL (≈ 5.59 µM) and an MIC (R. arrhizus; [21]) of over 64 µg/mL. For the same compound, the MIC (R. arrhizus; [22]) was over 64 µg/mL, the MIC (R. arrhizus; [23]) was over 64 µg/mL and the MIC (R. arrhizus; [24]) was over 64 µg/mL. It also gave an MIC (F. solani; [25]) of over 64 µg/mL, an MIC (F. solani; [26]) of over 64 µg/mL and an MIC (F. solani; [27]) of over 64 µg/mL. It also gave an MIC (F. solani; [28]) of over 64 µg/mL, an MIC (F. solani; [29]) of over 64 µg/mL and an MIC (F. solani; [30]) of over 64 µg/mL. It also gave an MIC (S. apiospermum; [31]) of 64 µg/mL (≈ 179 µM), an MIC (S. apiospermum; [32]) of 32 µg/mL (≈ 89.5 µM) and an MIC (S. apiospermum; [33]) of 8 µg/mL (≈ 22.4 µM). It also gave an MIC (S. apiospermum; [34]) of over 64 µg/mL, an MIC (S. apiospermum; [35]) of over 64 µg/mL and an MIC (S. apiospermum; [36]) of over 64 µg/mL. The MIC (A. fumigatus; 24 h, isolate 05-388, 24 hours) was 16 µg/mL (≈ 44.8 µM), the MIC (A. fumigatus; [37]) was 16 µg/mL (≈ 44.8 µM) and the MIC (A. fumigatus; [38]) was 32 µg/mL (≈ 89.5 µM). The MIC (A. fumigatus; 48 h, isolate 05-388, 48 hours) was over 64 µg/mL, the MIC (A. fumigatus; [39]) was over 64 µg/mL and the MIC (A. fumigatus; [40]) was over 64 µg/mL. For the same compound, the MIC (T. rubrum; [41]) was 8 µg/mL (≈ 22.4 µM), the MIC (T. rubrum; [42]) was 8 µg/mL (≈ 22.4 µM) and the MIC (T. rubrum; [43]) was 8 µg/mL (≈ 22.4 µM). It also gave an MIC (T. rubrum; [44]) of 8 µg/mL (≈ 22.4 µM).

Compound `O=C(CCCCCNC(=O)c1cc(Cl)ccc1S)Nc1ccccc1` [Compound 210] has an MIC (C. albicans; [1]) of over 64 µg/mL, an MIC (C. albicans; [2]) of over 64 µg/mL and an MIC (C. albicans; [3]) of over 64 µg/mL. The MIC (C. albicans; [4]) was over 64 µg/mL, the MIC (C. albicans; [5]) was over 64 µg/mL and the MIC (C. albicans; [6]) was over 64 µg/mL. The MIC (C. glabrata; [7]) was over 64 µg/mL, the MIC (C. glabrata; [8]) was over 64 µg/mL and the MIC (C. glabrata; [9]) was over 64 µg/mL. For the same compound, the MIC (C. glabrata; [10]) was over 64 µg/mL, the MIC (C. glabrata; [11]) was over 64 µg/mL and the MIC (C. glabrata; [12]) was over 64 µg/mL. For the same compound, the MIC (C. neoformans; [13]) was over 64 µg/mL, the MIC (C. neoformans; [14]) was over 64 µg/mL and the MIC (C. neoformans; [15]) was over 64 µg/mL. The MIC (C. neoformans; [16]) was over 64 µg/mL, the MIC (C. neoformans; [17]) was over 64 µg/mL and the MIC (C. neoformans; [18]) was over 64 µg/mL. For the same compound, the MIC (R. arrhizus; [19]) was 4 µg/mL (≈ 10.6 µM), the MIC (R. arrhizus; [20]) was 4 µg/mL (≈ 10.6 µM) and the MIC (R. arrhizus; [21]) was over 64 µg/mL. The MIC (R. arrhizus; [22]) was over 64 µg/mL, the MIC (R. arrhizus; [23]) was over 64 µg/mL and the MIC (R. arrhizus; [24]) was over 64 µg/mL. It also gave an MIC (F. solani; [25]) of 1 µg/mL (≈ 2.65 µM), an MIC (F. solani; [26]) of 1 µg/mL (≈ 2.65 µM) and an MIC (F. solani; [27]) of 2 µg/mL (≈ 5.31 µM). For the same compound, the MIC (F. solani; [28]) was over 64 µg/mL, the MIC (F. solani; [29]) was over 64 µg/mL and the MIC (F. solani; [30]) was over 64 µg/mL. For the same compound, the MIC (S. apiospermum; [31]) was 1 µg/mL (≈ 2.65 µM), the MIC (S. apiospermum; [32]) was 1 µg/mL (≈ 2.65 µM) and the MIC (S. apiospermum; [33]) was 1 µg/mL (≈ 2.65 µM). It also gave an MIC (S. apiospermum; [34]) of over 64 µg/mL, an MIC (S. apiospermum; [35]) of over 64 µg/mL and an MIC (S. apiospermum; [36]) of over 64 µg/mL. It also gave an MIC (A. fumigatus; 24 h, isolate 05-388, 24 hours) of 2 µg/mL (≈ 5.31 µM), an MIC (A. fumigatus; [37]) of 2 µg/mL (≈ 5.31 µM) and an MIC (A. fumigatus; [38]) of 2 µg/mL (≈ 5.31 µM). The MIC (A. fumigatus; 48 h, isolate 05-388, 48 hours) was over 64 µg/mL, the MIC (A. fumigatus; [39]) was over 64 µg/mL and the MIC (A. fumigatus; [40]) was over 64 µg/mL. It also gave an MIC (T. rubrum; [41]) of 0.25 µg/mL (≈ 0.663 µM), an MIC (T. rubrum; [42]) of 0.25 µg/mL (≈ 0.663 µM) and an MIC (T. rubrum; [43]) of 0.5 µg/mL (≈ 1.33 µM). For the same compound, the MIC (T. rubrum; [44]) was 0.5 µg/mL (≈ 1.33 µM).
